The target in one experiment is T1, TPα (Homo sapiens, UniProt P21731).
T1 construct: expressed in transfected cells
T1 sequence (P21731 1-343): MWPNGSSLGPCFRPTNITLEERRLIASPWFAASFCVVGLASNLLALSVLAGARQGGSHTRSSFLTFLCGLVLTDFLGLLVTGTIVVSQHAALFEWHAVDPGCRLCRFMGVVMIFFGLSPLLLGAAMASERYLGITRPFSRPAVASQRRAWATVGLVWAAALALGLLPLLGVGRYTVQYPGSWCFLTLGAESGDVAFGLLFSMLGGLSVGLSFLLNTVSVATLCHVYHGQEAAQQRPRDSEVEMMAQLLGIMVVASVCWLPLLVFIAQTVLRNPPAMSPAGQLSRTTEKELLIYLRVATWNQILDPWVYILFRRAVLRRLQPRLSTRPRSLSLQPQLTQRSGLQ
The experiment in a line: U46619-induced [Ca2+]i mobilization in HEK.TPα cells. Type of experiment: cell-based. The settings on record: for remaining activity at 1 µM: antagonist 1 μM, read-out: Percentage of Control, TPα, 1 μM; for remaining activity at 1 µM / remaining activity at 10 µM: % of agonist-induced response in vehicle-treated cells; for remaining activity at 10 µM: antagonist 10 μM, read-out: Percentage of Control, TPα, 10 μM. The source says: (§1) An appropriate functional test for the evaluation of the agonistic and/or antagonistic potency of the compounds of the invention is the determination of calcium flux. Both TPα and TPβ are coupled to the G-protein Gαq. Therefore, stimulation of these receptors ultimately leads to a release of intracellular calcium ([Ca^2+]i) from intracellular stores. Consequently, the determination of [Ca^2+]i flux represents an appropriate functional test for the evaluation of the agonistic/antagonistic potency of compounds of the invention. Calcium can be measured using a molecule characterized by the covalent combination of a Ca^2+ chelating group and a fluorophore group. The Ca^2+ binding properties of these indicators are formed by the presence of a tetracarboxylic acid core as found for example in EGTA (Ethylene Glycol bis(2-aminoethyl)Tetraacetic Acid). Binding of Ca^2+ produces a wavelength shift in either the excitation or emission fluorescence spectra or a change in the emission intensity. Whereas the Ca^2+ binding to EGTA is pH dependent, recent dyes are designed from an EGTA derivative, BAPTA (1,2-Bis(2-Aminophenoxy)ethane-N,N,N′,N′-Tetraacetic Acid). Loading of these dyes inside cells commonly uses esterified forms (acetoxymethyl ester), which are able to cross the cell membranes and are subsequently hydrolyzed by esterases inside the cell.
(§2) Estimation of [Ca^2+]i flux is calculated from the fluorescence signal (F). For calibration, the maximal fluorescence (Fmax, Ca^2+-saturated form of the dye) as well as minimal fluorescence (Fmin, Ca^2+-free form of the dye) must be determined. These parameters are determined usually in situ after the experiment, for example by subsequent addition to the mixture of a cell-disrupting agent that releases all Ca^2+ such as Triton X100 and a potent Ca^2+-chelating agent such as EGTA. After subtraction of background fluorescence, [Ca^2+]; flux can be calculated for non-ratiometric indicators.
(§3) Intracellular [Ca^2+]; fluxes were measured using a fluorescence plate reader following a modified protocol of Kassack et al., ‘Quantitative comparison of functional screening by measuring intracellular Ca^2+ with radioligand binding at recombinant human dopamine receptors’, AAPS Pharmsci, 2002, 4(4); 102-111, in cell lines (e.g. HEK293 or other cell type) endogenously-expressing or over-expressing either TPα, TPβ or any other receptor or protein to be screened.
(§4) By way of example, HEK 293 cells which have been grown for 3-4 days in normal growth media (minimum essential media containing 10% FBS and 2 mmol/1 L-glutamine), under normal growth conditions (37° C., in humidified 5% CO2 atmosphere) are washed and harvested in KREBs-HEPES buffer (118 mM NaCl, 4.7 mM KCl, 1.2 mM MgSO4, 1.2 mM KH2PO4, 4.2 mM NaHCO3, 11.7 mM D-glucose, 1.3 mM CaCl2, 10 mM HEPES, pH 7.4). Cells are then incubated with 3 μM Fluo-4 in KREBs-HEPES buffer containing 1% Pluoronic F-127, for 1 hr at 25° C. with agitation. Then, cells are washed in KREBs-HEPES buffer containing 0.5% BSA and re-suspended at a final concentration of 3×10^5 cells/ml. Approx. 5.4×10^4 cells per well are plated in a 96-well plate and pre-incubated with test compounds for 10 m prior to measuring the fluorescence intensity at 520 nm for 25 seconds at 1 s intervals to monitor baseline using the Fluoroskan Ascent. Agonist (e.g., 1 μM U46619) is injected into separate wells by the automatic pipettor and fluorescence intensity is monitored at 520 nm for 75 seconds at 1 s intervals. Thereafter, Triton X100 and EGTA are added sequentially where Fmax refers to maximal fluorescence intensity measured after permeabilization of the cells with 2% Triton X100 and Fmin refers to fluorescence intensity measured after addition of 1 mM EGTA.
(§5) The dye Fluo-4 has its excitation peak at 480 nm, in the visible spectra, which spare cells to be damaged by UV (340-360 nm) stimulation and reduces auto-fluorescence of cells. […]

Another experiment deals with T2, TPβ (Homo sapiens, UniProt P21731).
T2 construct: expressed in transfected cells
T2 sequence (P21731 1-407 isoform P21731-2): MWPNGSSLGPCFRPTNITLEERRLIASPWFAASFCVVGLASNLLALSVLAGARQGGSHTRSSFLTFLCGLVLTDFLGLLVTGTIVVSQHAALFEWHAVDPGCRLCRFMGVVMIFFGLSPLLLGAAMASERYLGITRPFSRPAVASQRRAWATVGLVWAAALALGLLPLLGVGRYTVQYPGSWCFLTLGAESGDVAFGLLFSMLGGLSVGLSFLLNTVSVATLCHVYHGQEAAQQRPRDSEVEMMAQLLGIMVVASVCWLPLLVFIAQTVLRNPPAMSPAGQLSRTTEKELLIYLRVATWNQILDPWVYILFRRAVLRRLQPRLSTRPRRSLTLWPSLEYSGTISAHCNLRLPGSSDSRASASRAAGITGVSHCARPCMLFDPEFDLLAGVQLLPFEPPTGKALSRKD
As to the kind of experiment: U46619-induced [Ca2+]i mobilization in HEK.TPβ cells. Type of experiment: cell-based. The settings on record: 1 μM U46619; for remaining activity at 1 µM / activity class in HEK.TPβ cells: antagonist 1 μM; for remaining activity at 1 µM / remaining activity at 10 µM: % of agonist-induced response in vehicle-treated cells; for remaining activity at 1 µM: read-out: Percentage of Control, TPβ, 1 μM; for remaining activity at 10 µM: antagonist 10 μM, read-out: Percentage of Control, TPβ, 10 μM.
Description: as §1, §2, §3, §4, §5

Structures are written as SMILES.

For the compound `Cc1ccc(Nc2ccc([N+](=O)[O-])cc2S(=O)(=O)NC(=O)NC(C)(C)C)cc1` [BM573, reference compound], the remaining activity at 1 µM at TPα (1 μM U46619) was found to be 48.5 ± 1.77%; on TPβ, 23.8 ± 0.68%. The remaining activity at 10 µM on TPα (1 μM U46619) is 12 ± 0.76%; at TPβ it was 9.9 ± 1.8%.
For `CCCCCNC(=O)NS(=O)(=O)c1cc([N+](=O)[O-])ccc1Oc1cccc(-c2ccc(C)cc2)c1` [IX], the IC50 (commonly the concentration needed to halve the response being measured) was determined as 11.6 µM at TPα (HEK.TPα cells, 1 μM U46619, Table 2, read-out: IC50 data for U46619-mediated [Ca2+]i mobilization, TPα) and 1.54 µM on TPβ (HEK.TPβ cells, Table 2, read-out: IC50 data for U46619-mediated [Ca2+]i mobilization, TPβ). For the same compound, the “TPα:TPβ Selectivity Ratio” value on TPα (IC50 TPα/IC50 TPβ) was 7.5.
Turning to `COc1ccc(-c2cccc(Oc3ccc(N)cc3S(=O)(=O)NC(=O)NC(C)(C)C)c2)cc1` [NTP1, 5-amino-N-(tert-butylcarbamoyl)-2-((4′-methoxy-[1,1′-biphenyl]-3-yl)oxy)benzene-sulfonamide], at TPα (1 μM U46619), the remaining activity at 1 µM was 77.8 ± 8.71% and the remaining activity at 10 µM is 50.2 ± 6.39%. Besides, on TPβ, the remaining activity at 1 µM worked out at 101 ± 4.75% and the remaining activity at 10 µM was found to be 102 ± 4.15%.
For `COc1ccc(-c2cccc(Oc3ccc(C(=O)N(C)C)cc3S(=O)(=O)NC(=O)NC(C)(C)C)c2)cc1` [NTP2, 3-(N-(tert-butylcarbamoyl)sulfamoyl)-4-((4′-methoxy-[1,1′-biphenyl]-3-yl)oxy)-N,N-dimethylbenzamide], in that order: 85 ± 2.71%, 54.9 ± 3.32%, 102 ± 3.59% and 90.1 ± 2.78%.
Regarding `COc1ccc(-c2cccc(Oc3ccc(C(F)(F)F)cc3S(=O)(=O)NC(=O)NC(C)(C)C)c2)cc1` [NTP3, N-(tert-butylcarbamoyl)-2-((4′-methoxy-[1,1′-biphenyl]-3-yl)oxy)-5-(trifluoromethyl)benzenesulfonamide], on TPα (1 μM U46619), the remaining activity at 1 µM was 69.6 ± 5.35% and the remaining activity at 10 µM was found to be 41.6 ± 5.45%. Moreover, on TPβ, the “activity class in HEK.TPβ cells” value was “ACTIVE”, the remaining activity at 1 µM stood at 46 ± 5.92% and the remaining activity at 10 µM is 14.8 ± 2.44%.
Regarding `COc1ccc(-c2cccc(Oc3ccc(C(=O)O)cc3S(=O)(=O)NC(=O)NC(C)(C)C)c2)cc1` [NTP5, 3-(N-(tert-butylcarbamoyl)sulfamoyl)-4-((4′-methoxy-[1,1′-biphenyl]-3-yl)oxy)benzoic acid], at TPα (1 μM U46619), the remaining activity at 1 µM amounted to 98.7 ± 9.29% and the remaining activity at 10 µM was 61.7 ± 1.42%. Also, at TPβ, the remaining activity at 1 µM turned out to be 88.3 ± 5.27% and the remaining activity at 10 µM amounted to 72 ± 3.87%.
For `CCn1cc(-c2ccc(Oc3cccc(-c4ccc(OC)cc4)c3)c(S(=O)(=O)NC(=O)NC(C)(C)C)c2)cn1` [NTP6, N-(tert-butylcarbamoyl)-5-(1-ethyl-1H-pyrazol-4-yl)-2-((4′-methoxy-[1,1′-biphenyl]-3-yl)oxy)benzenesulfonamide], in that order: 88.6 ± 14.5%, 45.1 ± 5.75%, 94.4 ± 7.7% and 57.4 ± 6.86%.
Take `COc1ccc(-c2cccc(Oc3ccc(Br)cc3S(=O)(=O)NC(=O)NC(C)(C)C)c2)cc1` [NTP7, 5-bromo-N-(tert-butylcarbamoyl)-2-((4′-methoxy-[1,1′-biphenyl]-3-yl)oxy)benzenesulfonamide]: at TPα (1 μM U46619), the remaining activity at 1 µM came to 61.5 ± 7.7% and the remaining activity at 10 µM is 32.5 ± 3.95%. Further, at TPβ, the “activity class in HEK.TPβ cells” value is given as “ACTIVE”, the remaining activity at 1 µM turned out to be 49 ± 4.41% and the remaining activity at 10 µM is 12.2 ± 1.93%.
As to `COc1ccc(-c2cccc(Oc3ccc(F)cc3S(=O)(=O)NC(=O)NC(C)(C)C)c2)cc1` [NTP8, N-(tert-butylcarbamoyl)-5-fluoro-2-((4′-methoxy-[1,1′-biphenyl]-3-yl)oxy)benzene-sulfonamide], on TPα (1 μM U46619), the remaining activity at 1 µM is 68 ± 5.05% and the remaining activity at 10 µM is 49.9 ± 6.91%. For the same compound, at TPβ, the “activity class in HEK.TPβ cells” value is “ACTIVE”, the remaining activity at 1 µM turned out to be 59.4 ± 1.85% and the remaining activity at 10 µM was found to be 14.6 ± 2.72%.
Take `COc1ccc(-c2cccc(Oc3ccc(C(C)=O)cc3S(=O)(=O)NC(=O)NC(C)(C)C)c2)cc1` [NTP9, 5-acetyl-N-(tert-butylcarbamoyl)-2-((4′-methoxy-[1,1′-biphenyl]-3-yl)oxy)benzenesulfonamide]: the remaining activity at 1 µM was found to be 85.9 ± 9.13% at TPα (1 μM U46619) and 46.3 ± 7.33% at TPβ. Besides, the remaining activity at 10 µM at TPα (1 μM U46619) was found to be 70.4 ± 2.47%; at TPβ, 12.2 ± 1.03%.
For `CNC(=O)c1ccc(Oc2cccc(-c3ccc(OC)cc3)c2)c(S(=O)(=O)NC(=O)NC(C)(C)C)c1` [NTP10], in that order: 95.5 ± 4.25%, 96 ± 0.94%, 69.8 ± 1.73% and 54.7 ± 8.1%.
For `COc1ccc(-c2cccc(Oc3ccc(C(=O)NCc4ccccn4)cc3S(=O)(=O)NC(=O)NC(C)(C)C)c2)cc1` [NTP11], in that order: 73.1 ± 5.28%, 49.8 ± 1.86%, 75.4 ± 5.83% and 20.7 ± 2.81%.
For `COc1ccc(-c2cccc(Oc3ccc(C(=O)NC4COC4)cc3S(=O)(=O)NC(=O)NC(C)(C)C)c2)cc1` [NTP12], in that order: 99.7 ± 2.13%, 84.2 ± 7.51%, 77.9 ± 2.69% and 34.4 ± 2.85%.
For `COc1ccc(-c2cccc(Oc3ccc(C(N)=O)cc3S(=O)(=O)NC(=O)NC(C)(C)C)c2)cc1` [NTP13], on TPα (1 μM U46619), the remaining activity at 1 µM was determined as 93.8 ± 13.9% and the remaining activity at 10 µM turned out to be 95.2 ± 9.57%. Further, on TPβ, the remaining activity at 1 µM came to 74 ± 3.66% and the remaining activity at 10 µM was found to be 36.2 ± 0.52%.
For `COCCNC(=O)c1ccc(Oc2cccc(-c3ccc(OC)cc3)c2)c(S(=O)(=O)NC(=O)NC(C)(C)C)c1` [NTP14], in that order: 83.5 ± 9.26%, 89.1 ± 9.1%, 86.4 ± 7.06% and 59.4 ± 7.67%.
For `COc1ccc(-c2cccc(Oc3ccc(C(=O)NCCN(C)C)cc3S(=O)(=O)NC(=O)NC(C)(C)C)c2)cc1` [NTP15], in that order: 79.8 ± 8.81%, 52.6 ± 8.42%, 87.6 ± 8.28% and 86.1 ± 5.64%.
With `COc1ccc(-c2cccc(Oc3ccc(C(=O)NCC4CC4)cc3S(=O)(=O)NC(=O)NC(C)(C)C)c2)cc1` [NTP16], at TPα (1 μM U46619), the remaining activity at 1 µM was 117 ± 10.2% and the remaining activity at 10 µM was 96.3 ± 1.24%. Further, at TPβ, the remaining activity at 1 µM amounted to 83 ± 7.62% and the remaining activity at 10 µM was 34 ± 3.88%.

The values are drawn from patent publication US9718781B2, “Methods and compounds for treating proliferative disorders and viral infections” (University College Dublin, National University of Ireland, …, priority 2012, dated 2017).
